Test results taken from patent US8263598B2, “Substituted sulfonamide compounds” (Gruenenthal GmbH, priority 2008, dated 2012).

Tests used:
[1] = target: T1, human B1R receptor (hB1R) (Homo sapiens, UniProt P46663); experiment: FLIPR Ca2+ assay on human bradykinin 1 receptor (CHO K1 hB1R cells); assay type: cell-based; conditions: test substance 10 μM; CHO K1 cells with human B1R gene; agonist Lys-Des-Arg9-bradykinin 0.5 nM; compared to maximum achievable inhibition
T1 construct: host or cells: CHO K1 cells
T1 sequence (P46663 1-353): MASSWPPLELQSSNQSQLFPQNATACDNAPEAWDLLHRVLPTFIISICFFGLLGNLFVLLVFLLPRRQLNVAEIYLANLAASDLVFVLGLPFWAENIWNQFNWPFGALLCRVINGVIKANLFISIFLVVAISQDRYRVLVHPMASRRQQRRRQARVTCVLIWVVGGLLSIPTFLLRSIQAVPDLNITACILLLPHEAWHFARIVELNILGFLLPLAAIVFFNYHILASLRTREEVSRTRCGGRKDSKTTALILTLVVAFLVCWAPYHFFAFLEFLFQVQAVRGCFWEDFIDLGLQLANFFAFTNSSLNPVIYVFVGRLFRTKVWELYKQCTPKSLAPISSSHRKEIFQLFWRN
Summary of the method: (§1)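 Values are percent inhibition of agonist-evoked Ca²⁺ influx, measured by Fluo-4 fluorescence peak in FLIPR relative to maximum achievable inhibition. Compound at 10 μM was preincubated 10 min on B1R-transfected CHO K1 cells before challenge with 0.5 nM Lys-Des-Arg9-bradykinin (human) or 100 nM Des-Arg9-bradykinin (rat).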

[2] = target: T2, B1R receptor of rats (rB1R) (Rattus norvegicus, UniProt P97583); experiment: FLIPR Ca2+ assay on rat bradykinin 1 receptor (CHO K1 rB1R cells); assay type: cell-based; conditions: test substance 10 μM; CHO K1 cells with B1R gene of rats; agonist Des-Arg9-bradykinin 100 nM; compared to maximum achievable inhibition
T2 construct: host or cells: CHO K1 cells
T2 sequence (P97583 1-337): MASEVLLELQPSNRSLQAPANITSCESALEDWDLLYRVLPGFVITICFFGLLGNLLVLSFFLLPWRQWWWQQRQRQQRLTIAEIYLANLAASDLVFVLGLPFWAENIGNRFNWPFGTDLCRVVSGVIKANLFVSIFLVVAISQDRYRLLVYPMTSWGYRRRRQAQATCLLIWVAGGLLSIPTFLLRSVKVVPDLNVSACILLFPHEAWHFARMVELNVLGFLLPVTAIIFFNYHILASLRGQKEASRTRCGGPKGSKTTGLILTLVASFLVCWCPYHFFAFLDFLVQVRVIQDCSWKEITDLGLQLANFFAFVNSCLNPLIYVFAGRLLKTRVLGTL
Summary of the method: as §1

Row | inhibition at 10 µM [1] [%] | inhibition at 10 µM [2] [%] | hB1R [10 μM] % Inhibition [1] [%] | rB1R [10 μM] % Inhibition [2] [%] | Compound
1 | 96 | 79 |  |  | COc1c(C)cc(S(=O)(=O)N(C)CCOCC(=O)N2CCn3cccc3C2c2cccnc2)c(C)c1C (centres unmarked) [Example 29, 4-methoxy-N,2,3,5-tetramethyl-N-(2-(2-oxo-2-(1-(pyridin-3-yl)-3,4-dihydropyrrolo[1,2-a]pyrazin-2(1H)-yl)ethoxy)ethyl)benzenesulfonamide]
2 | 91 | 102 |  |  | CCCC1c2cccn2CCN1C(=O)COCCN(CC(C)C)S(=O)(=O)c1c(C)cc(OC)c(C)c1C (centres unmarked) [Example 101, N-isobutyl-4-methoxy-2,3,6-trimethyl-N-(2-(2-oxo-2-(1-propyl-3,4-dihydropyrrolo[1,2-a]pyrazin-2(1H)-yl)ethoxy)ethyl)benzenesulfonamide]
3 | 104 | 103 |  |  | CCCCC1c2ccc(CN(C)C)n2CCN1C(=O)COCCN(C)S(=O)(=O)c1c(C)cc(OC)cc1C (centres unmarked) [Example 134, N-(2-(2-(1-butyl-6-((dimethylamino)methyl)-3,4-dihydropyrrolo[1,2-a]pyrazin-2(1H)-yl)-2-oxoethoxy)ethyl)-4-methoxy-N,2,6-trimethylbenzenesulfonamide]
4 | 101 | 100 |  |  | COc1ccc(C2c3cccn3CCN2C(=O)COCCN(C)S(=O)(=O)c2c(C)cc(C)cc2C)cc1 (centres unmarked) [Example 69, N-(2-(2-(1-(4-methoxyphenyl)-3,4-dihydropyrrolo[1,2-a]pyrazin-2(1H)-yl)-2-oxoethoxy)ethyl)-N,2,4,6-tetramethylbenzenesulfonamide]
5 | 91 | 97 |  |  | CCCC1c2cccn2CCN1C(=O)COCCN(C)S(=O)(=O)c1cc(C)c(OC)c(C)c1C (centres unmarked) [Example 115, 4-methoxy-N,2,3,5-tetramethyl-N-(2-(2-oxo-2-(1-propyl-3,4-dihydropyrrolo[1,2-a]pyrazin-2(1H)-yl)ethoxy)ethyl)benzenesulfonamide]
6 | 101 | 99 |  |  | COc1cc(C)c(S(=O)(=O)N(C)CCOCC(=O)N2CCn3cccc3C2C)c(C)c1 (centres unmarked) [Example 53, 4-methoxy-N,2,6-trimethyl-N-(2-(2-(1-methyl-3,4-dihydropyrrolo[1,2-a]pyrazin-2(1H)-yl)-2-oxoethoxy)ethyl)benzenesulfonamide]
7 | 100 | 100 |  |  | CCCCC1c2ccc(CN(C)C)n2CCN1C(=O)COCCN(C)S(=O)(=O)c1cc(C)c(OC)c(C)c1C (centres unmarked) [Example 111, N-(2-(2-(1-butyl-6-((dimethylamino)methyl)-3,4-dihydropyrrolo[1,2-a]pyrazin-2(1H)-yl)-2-oxoethoxy)ethyl)-4-methoxy-N,2,3,5-tetramethylbenzene-sulfonamide]
8 | 99 | 101 |  |  | COc1c(C)cc(S(=O)(=O)N(C)CCOCC(=O)N2CCn3c(CN4CCCC4)ccc3C2c2ccccc2)c(C)c1C (centres unmarked) [Example 106, 4-methoxy-N,2,3,5-tetramethyl-N-(2-(2-oxo-2-(1-phenyl-6-(pyrrolidin-1-ylmethyl)-3,4-dihydropyrrolo[1,2-a]pyrazin-2(1H)-yl)ethoxy)ethyl)benzene-sulfonamide]

Further lines, the molecule ahead of its results:

Row | Compound | inhibition at 10 µM [1] [%] | inhibition at 10 µM [2] [%] | hB1R [10 μM] % Inhibition [1] [%] | rB1R [10 μM] % Inhibition [2] [%]
9 | COc1cc(C)c(S(=O)(=O)N(CCOCC(=O)N2CCn3ccnc3C2)Cc2ccccc2)c(C)c1 [Example 46, N-benzyl-N-(2-(2-(5,6-dihydroimidazo[1,2-a]pyrazin-7(8H)-yl)-2-oxoethoxy)ethyl)-4-methoxy-2,6-dimethylbenzenesulfonamide] | 41 | 96 |  | 
10 | Cc1cc(C)c(S(=O)(=O)N(C)CCOCC(=O)N2CCn3c(CN(C)C)ccc3C2c2cccs2)c(C)c1 (centres unmarked) [Example 144, N-(2-(2-(6-((dimethylamino)methyl)-1-(thiophen-2-yl)-3,4-dihydropyrrolo[1,2-a]pyrazin-2(1H)-yl)-2-oxoethoxy)ethyl)-N,2,4,6-tetramethylbenzenesulfonamide] | 104 | 104 |  | 
11 | COc1ccc(C2c3cccn3CCN2C(=O)COCCN(Cc2ccccc2)S(=O)(=O)c2c(C)cc(OC)cc2C)cc1 (centres unmarked) [Example 47, N-benzyl-4-methoxy-N-(2-(2-(1-(4-methoxyphenyl)-3,4-dihydropyrrolo[1,2-a]pyrazin-2(1H)-yl)-2-oxoethoxy)ethyl)-2,6-dimethylbenzenesulfonamide] | 42 | 100 |  | 
12 | COc1cc(C)c(S(=O)(=O)N(C)CCOCC(=O)N2CCn3cc(CCc4ccncc4)nc3C2)c(C)c1 [Example 178, 4-Methoxy-N,2,6-trimethyl-N-(2-(2-oxo-2-(2-(2-(pyridin-4-yl)ethyl)-5,6-dihydroimidazo[1,2-a]pyrazin-7(8H)-yl)ethoxy)ethyl)benzenesulfonamide] | 99 | 100 |  | 
13 | COc1cc(C)c(S(=O)(=O)N(CCOCC(=O)N2CCn3c(CN4CCCC4)ccc3C2c2ccccc2)Cc2ccccc2)c(C)c1C (centres unmarked) [Example 116, N-benzyl-4-methoxy-2,3,6-trimethyl-N-(2-(2-oxo-2-(1-phenyl-6-(pyrrolidin-1-ylmethyl)-3,4-dihydropyrrolo[1,2-a]pyrazin-2(1H)-yl)ethoxy)ethyl)benzene-sulfonamide] | 103 | 102 |  | 
14 | COc1cc(C)c(S(=O)(=O)N(C)CCOCC(=O)N2CCn3c(CN4CCOCC4)ccc3C2)c(C)c1 [Example 7, 4-methoxy-N,2,6-trimethyl-N-(2-(2-(6-(morpholinomethyl)-3,4-dihydropyrrolo[1,2-a]pyrazin-2(1H)-yl)-2-oxoethoxy)ethyl)benzenesulfonamide] | 101 | 99 |  | 
15 | CCC1c2cccn2CCN1C(=O)COCCN(Cc1ccccc1)S(=O)(=O)c1c(C)cc(OC)cc1C (centres unmarked) [Example 132, N-benzyl-N-(2-(2-(1-ethyl-3,4-dihydropyrrolo[1,2-a]pyrazin-2(1H)-yl)-2-oxoethoxy)ethyl)-4-methoxy-2,6-dimethylbenzenesulfonamide] | 100 | 102 |  | 
16 | O=C(CC(NS(=O)(=O)c1ccc2ccccc2c1)c1ccccc1)N1CCn2c(CCc3ccncc3)ccc2C1 (centres unmarked) [Example 173, N-(3-Oxo-1-phenyl-3-(6-(2-(pyridin-4-yl)ethyl)-3,4-dihydropyrrolo[1,2-a]pyrazin-2(1H)-yl)propyl)naphthalene-2-sulfonamide] | 20 | 75 |  | 
17 | COc1cc(C)c(S(=O)(=O)N(C)CCOCC(=O)N2CCn3c(CN4CCN(C)CC4)ccc3C2)c(C)c1 [Example 9, 4-methoxy-N,2,6-trimethyl-N-(2-(2-(6-((4-methylpiperazin-1-yl)methyl)-3,4-dihydropyrrolo[1,2-a]pyrazin-2(1H)-yl)-2-oxoethoxy)ethyl)benzenesulfonamide] | 101 | 102 |  | 
18 | COc1cc(C)c(S(=O)(=O)N(CCOCC(=O)N2CCn3cccc3C2C(C)(C)C)Cc2ccccc2)c(C)c1 (centres unmarked) [Example 44, N-benzyl-N-(2-(2-(1-tert-butyl-3,4-dihydropyrrolo[1,2-a]pyrazin-2(1H)-yl)-2-oxoethoxy)ethyl)-4-methoxy-2,6-dimethylbenzenesulfonamide] | 88 | 98 |  | 
19 | COc1cc(C)c(S(=O)(=O)N(CCOCC(=O)N2CCn3cccc3C2c2ccc(Cl)nc2)CC(C)C)c(C)c1C (centres unmarked) [Example 20, N-(2-(2-(1-(6-chloropyridin-3-yl)-3,4-dihydropyrrolo[1,2-a]pyrazin-2(1H)-yl)-2-oxoethoxy)ethyl)-N-isobutyl-4-methoxy-2,3,6-trimethylbenzenesulfonamide] | 84 | 98 |  | 
20 | COc1cccc(C2c3cccn3CCN2C(=O)COCCN(CC(C)C)S(=O)(=O)c2c(C)cc(OC)c(C)c2C)c1 (centres unmarked) [Example 26, N-isobutyl-4-methoxy-N-(2-(2-(1-(3-methoxyphenyl)-3,4-dihydropyrrolo[1,2-a]pyrazin-2(1H)-yl)-2-oxoethoxy)ethyl)-2,3,6-trimethylbenzenesulfonamide] | 34 | 99 |  | 
21 | COc1cc(C)c(S(=O)(=O)N(CCOCC(=O)N2CCn3c(CN(C)C)ccc3C2Cc2ccccc2)Cc2ccccc2)c(C)c1 (centres unmarked) [Example 129, N-benzyl-N-(2-(2-(1-benzyl-6-((dimethylamino)methyl)-3,4-dihydropyrrolo[1,2-a]pyrazin-2-(1H)-yl)-2-oxoethoxy)ethyl)-4-methoxy-2,6-dimethylbenzene-sulfonamide] |  |  | 100 | 101
22 | COc1cccc(C2c3cccn3CCN2C(=O)COCCN(C)S(=O)(=O)c2c(C)cc(OC)cc2C)c1 (centres unmarked) [Example 62, 4-methoxy-N-(2-(2-(1-(3-methoxyphenyl)-3,4-dihydropyrrolo[1,2-a]pyrazin-2(1H)-yl)-2-oxoethoxy)ethyl)-N,2,6-trimethylbenzenesulfonamide] | 101 | 98 |  | 
